From patent US12702149B2, “Resistant starch from natural sources and their preparation” (Arjuna Natural Private Limited, priority 2019, dated 2026) come the findings set out here.

The assay deals with carrageenan induced paw oedema. The experiment in a line: Anti-inflammatory study, carrageenan induced paw oedema model. The format is in vivo, Wistar rats. Particulars: oral, fibres 50 mg/Kg, Diclofenac 10 mg/Kg. On the procedure:
Anti-inflammatory study of turmeric dietary fibre was conducted in Wistar rats. Rats were divided into 5 groups and orally administered with study samples. • Group 1: consisted of control animals and were fed with vehicle (1% tween 80) • Group 2: animals which were given Diclofenac standard (10 mg Diclofenac/Kg body weight) • Group 3: Animals were given turmeric dietary fibre having 80% total dietary fibre (50 mg/Kg) • Group 4: Animals were given soluble dietary fibre from Guar beans (50 mg/Kg) • Group 5: Animals were given modified starch from tapioca (50 mg/Kg) Then after 30 mins, the treated rats were challenged with carrageenan (0.1 ml, 1% carrageenan suspension in 0.9% NaCl solution) by injecting to the animals in sub plantar region of the hind paw. Carrageenan is a chemical known to induce inflammation in rats. The paw volume was determined for all the animals at different time intervals (base line, 3 hr, 6 Hr) after carrageenan injection using digital plethysmometer and the percentage inhibition of inflammation was calculated using following formula: Percentage inhibition=(1−D/C)×100 • D-Represents the difference in paw volume from baseline in test/standard group. • C-Represents the difference in paw volume from baseline in the control group. A higher value of percentage inhibition indicated less paw volume in the animals as compared to control animals and more anti-inflammatory activity.
(Carrageenan injected into the paw causes an acute inflammation.)

As to `O=C(O)Cc1ccccc1Nc1c(Cl)cccc1Cl` [Diclofenac], under “average of 3 Hr and 6 Hr”, the “Average percentage inhibition of inflammation” value stood at 39%. Besides, the “Percentage inhibition of inflammation 3 Hr” value (paw volume 3 hr after carrageenan) worked out at 46%. The “Percentage inhibition of inflammation 6 Hr” value (paw volume 6 hr after carrageenan) was determined as 32%.
